{"source": "paper PMC6219560", "about": "“An Electroencephalography Bioassay for Preclinical Testing of Analgesic Efficacy” (Scientific Reports, 2018)", "key": {"[1]": {"system": "rat model of neuropathic pain (CCI)", "assay": "EEG theta power over primary somatosensory cortex in awake rats with CCI", "type": "in vivo", "conditions": "for Longitudinal effects on theta power and PWL: single dose 10 mg/kg, n=4", "procedure": "These procedures were performed under anesthesia (isoflurane, 2–3.5%). The head was fixed in a stereotaxic apparatus, and skull was exposed after a small skin incision. A stainless steel screw electrode (0–80 ga 1/8 inch, impedance = 0.6 Ω; component Supply Company, Fort Meade, FL) was placed over intact skull (i.e. epicranially) corresponding to primary somatosensory cortex or S1 contralateral to nerve injury (Bregma −2, 2 mm lateral). Minimal craniotomies were used to place 3 stabilization screws (corresponding to Bregma +1.4, 2 mm bilaterally and Bregma −4.8 mm, midline). The EEG screw was threaded with a silver wire and attached to a female miniature pin connector (A&M Systems, Sequim, WA). All screws were anchored to the skull chronically using dental acrylic (Fig. 1B). Signal reference was provided by a silver wire permanently threaded to the skin at the back of the neck.\n(§1) The sciatic nerve was exposed unilaterally after skin incision at the mid-thigh level and blunt dissection of the biceps under deep anesthesia (isoflurane, 3%). Four chromic gut ligatures were tied loosely around the nerve 1 mm apart, and the overlying muscles and skin were closed in layers with 4–0 Ethilon sutures. A minor modification was introduced, consisting of loose ligatures, to minimize nerve damage and deafferentation. […] For CCI sham surgery, the sciatic nerve was similarly exposed but not ligated.\nPin connectors from EEG electrode was tethered to preamplifier headstage leading to a multichannel amplifier (iso-DAM8A; WPI Inc, Sarasota, FL). EEG waveforms were amplified (DAM80; World Precision Instruments, Sarasota, FL). […] Rats were allowed to move freely during EEG recording in Plexiglas chambers. After 15 minutes of acclimation, EEG recording was performed. Each EEG recording session was 3 to 5 minutes per animal. […] Only data during awake resting periods (defined as alertness but idle with no locomotor behavior) were further analyzed. Potentials generated due to vigorous myogenic activity (such as scratching) were excluded from analysis. These artifacts can be easily identified on the basis of monitoring the animal’s behavior, voltage amplitude, and spectral frequency typically >30 Hz, and they were further corroborated using an automated artifact detection algorithm recently developed in our laboratory (Supplemental Fig. 3)[59].\nFast Fourier transform was used to convert EEG waveform from the time domain to the frequency domain. Power values were generated in 27 frequency bins between 3 and 30 Hz. Awake resting periods were selected and Fast Fourier transformed, then average PSD was calculated. Mean PSD theta was computed between 4 and 8 Hz (Fig. 1C). Each ‘period’ was a continuous interval between 7 and 20 seconds, and 3–5 periods were averaged to obtain one value for mean theta per condition.\n(§2) Values regarding theta power and PWL are reported as mean ± SEM and then converted to ratio relative to naive or CCI values for standardized representation of the data. One sample t-test was used for comparison between naïve and CCI, and paired t-test was used for comparison between CCI and after treatment in the same animals, respectively. Values regarding drug plasma concentration are reported as geomean (% of covariance) or range. Correlation analysis was used to compare EEG with PWL values. A P value < 0.05 was considered statistically significant and denoted by asterisk (*) in figures."}, "[2]": {"system": "rat model of neuropathic pain (CCI)", "assay": "Thermal hyperalgesia: paw withdrawal latency (PWL) in rats with CCI", "type": "in vivo", "source_text": "as §1, with “deafferentation. Rats with this slightly modified CCI procedure gradually develop typical signs of sensory hypersensitivity associated with neuropathic pain, such as guarding the affected hind paw and thermal hypersensitivity.” for “deafferentation.”\nEEG recording was performed first for ~10 min during resting states (no stimulation). The rat was then untethered from the EEG leads and placed in the behavioral apparatus for 15 min acclimation, followed by 5 min PWL testing. Thermal sensitivity of the hindpaw was assessed by measuring the latency of the withdrawal reflex in response to a radiant heat source (Paw withdrawal stimulator, Department of Anesthesiology, University of California, SD). A radiant heat source (4.7 A) was applied to the plantar surface of the hind paw. Paw withdrawal latencies (PWL) in response to 4 thermal stimulations were averaged for each paw. Stimulations to each paw were separated by at least 2 minutes intervals.\nas §2"}, "[3]": {"conditions": "cited from earlier work"}, "[4]": {"assay": "Pharmacokinetics (PK) study: drug plasma concentration in rats by LC-MS/MS", "type": "in vivo, rat", "conditions": "for concentration at 30 min: geomean (% coefficient of variation), n = 3", "procedure": "Rats (n = 3 per group) were intraperitoneally treated either with 3 or 100 mg/kg of pregabalin, or orally either with 1 or 10 mg/kg of EMA401, or 80 mg/kg of minocycline. At 0.5, 1, and 2 hours after treatment, approximately 150 µL of blood was collected from the jugular vein using a heparinized syringe with a needle. Blood samples were then centrifuged at 1700 g at 4 °C for 10 minutes. Plasma samples were then separated and stored at −20 °C until analysis. Five or 10 μL of plasma samples were diluted with 300 μL of deproteinization solution containing internal standards (5 nM buspirone, 20 nM tolbutamide, 10 nM reserpine in acetonitorile/methanol = 9: 1) and shaken for 5 minutes at room temperature, and centrifuged at 1000 g for 15 minutes. Then, the supernatant was analyzed by LC-MS/MS (Xevo TQ-S Tandem Quadrupole Mass Spectrometry, Waters) for quantification of pregabalin. Data analysis were performed with MassLynx Mass Spectometry Software and TargetLynx Application manager (Waters)."}, "pain patients": {"system": "pain patients", "conditions": "equivalent human dose High (rat 30 mg/kg i.p.); cited from earlier work"}, "[5]": {"conditions": "cited from earlier work; for Plasma concentration in rat: mean (% coefficient of variation) ref 29; for Plasma concentration in rat (% covariance): mean ref Lau et al."}, "rats with CCI": {"system": "rats with CCI", "design": "method as in PMID 23489258", "conditions": "single doses (i.p.), rats with CCI ref 38; cited from earlier work"}, "[6]": {"conditions": "80 mg/kg p.o., single administration at d14 after CCI, n = 5"}, "[7]": {"conditions": "10 mg/kg p.o., single administration, d14 after CCI, 0.5 hr, n = 6"}}, "note": "Read-outs that look alike come from different tables or passages of the source."}
{"molecule": "CN(C)c1ccc(O)c2c1C[C@H]1C[C@H]3[C@H](N(C)C)C(O)=C(C(N)=O)C(=O)[C@@]3(O)C(O)=C1C2=O", "note": "[Minocycline, minocycline]", "values": [{"measurement": "Theta power relative to CCI", "setting": "[1]; 80 mg/kg p.o. daily starting d7 CCI, day 11, n = 7", "value": "0.95 ± 0.11"}, {"measurement": "Theta power relative to CCI", "setting": "[1]; 80 mg/kg p.o. daily starting d7 CCI, day 14, n = 5", "value": "1.37 ± 0.45"}, {"measurement": "Theta power relative to CCI", "setting": "[1]; 80 mg/kg p.o., d7 after CCI (first of daily doses), n = 7", "value": "0.71 ± 0.06"}, {"measurement": "Theta power relative to CCI", "setting": "[1]; [6]", "value": "0.96 ± 0.13"}, {"measurement": "PWL relative to CCI", "setting": "[2]; 80 mg/kg p.o. daily treatment starting d7 CCI, day 7", "value": "0.91 ± 0.05"}, {"measurement": "PWL relative to CCI", "setting": "[2]; 80 mg/kg p.o. daily treatment starting d7 CCI, day 10", "value": "1.00 ± 0.08"}, {"measurement": "PWL relative to CCI", "setting": "[2]; 80 mg/kg p.o. daily treatment starting d7 CCI, day 14", "value": "0.94 ± 0.04"}, {"measurement": "PWL relative to CCI", "setting": "[2]; [6]", "value": "1.08 ± 0.10"}, {"measurement": "Corresponding plasma concentration in human: clinical dose", "setting": "[3]; 200 mg/day, range ref Sumitani et al.", "value": "Therapeutic dose (inconclusive) Higher than clinical (200 mg/day) dose: 3.19–4.59 mg/mL*a [Sumitani et al.]"}]}
{"molecule": "CC(C)C[C@H](CN)CC(=O)O", "note": "[Pregabalin, pregabalin]", "values": [{"measurement": "Linearity of plasma concentration at 30 min", "setting": "[4]; doses of 3 and 100 mg/kg i.p., compared with previous report (10 and 30 mg/kg)", "value": "good linearity"}, {"measurement": "concentration at 30 min", "setting": "[4]; rat, in vivo, 3 mg/kg i.p.", "value": 3.29, "unit": "µg/mL"}, {"measurement": "concentration at 30 min", "setting": "[4]; rat, in vivo, 100 mg/kg i.p.", "value": 99.3, "unit": "µg/mL"}, {"measurement": "Theta power relative to CCI", "setting": "[1]; 3 mg/kg i.p., single dose, d14 after CCI, 0.5 h, mean ± SEM ratio, n = 7", "value": "0.91 ± 0.11"}, {"measurement": "Theta power relative to CCI", "setting": "[1]; 10 mg/kg i.p., single dose, d14 after CCI, 0.5 h, mean ± SEM ratio, n = 7", "value": "0.83 ± 0.12"}, {"measurement": "EEG efficacy (θ power)", "setting": "[1]; 30 mg/kg (i.p.), pain phase Late", "value": "Side effects"}, {"measurement": "Theta power relative to CCI", "setting": "[1]; 30 mg/kg i.p., single dose, d14 after CCI, 0.5 h, mean ± SEM ratio, n = 7", "value": "1.24 ± 0.29"}, {"measurement": "PWL relative to CCI", "setting": "[2]; 3 mg/kg i.p., single dose, d14 after CCI, 0.5 h, mean ± SEM ratio", "value": "1.42 ± 0.10"}, {"measurement": "PWL relative to CCI", "setting": "[2]; 10 mg/kg i.p., single dose, d14 after CCI, 0.5 h, mean ± SEM ratio", "value": "1.54 ± 0.08"}, {"measurement": "PWL relative to CCI", "setting": "[2]; 30 mg/kg i.p., single dose, d14 after CCI, 0.5 h, mean ± SEM ratio", "value": "1.47 ± 0.14"}, {"measurement": "Clinical efficacy (VAS)", "setting": "pain patients", "value": "Side effects"}, {"measurement": "Plasma concentration in rat", "setting": "[5]; 10 mg/kg i.p., 30 min", "value": "11.3 (4.9) μg/mL"}, {"measurement": "Plasma concentration in rat (% covariance)", "setting": "[5]; 10 mg/kg, observation time 30 min", "value": "11.3 (4.9)*b mg/mL"}, {"measurement": "Plasma concentration in rat", "setting": "[5]; 30 mg/kg i.p.", "value": "33.0 (5.4) μg/mL"}, {"measurement": "Plasma concentration in rat (% covariance)", "setting": "[5]; 30 mg/kg", "value": "33.0 (5.4)*b mg/mL"}, {"measurement": "Cmax in humans", "setting": "[3]; 150 mg/day ref 31", "value": "3.18 (21) μg/mL"}, {"measurement": "Corresponding plasma concentration in human: Cmax", "setting": "[3]; 150 mg/day ref Chew et al.", "value": "Sub-therapeutic dose Similar to Cmax of 150 mg/day: 3.18 (21) mg/mL [Chew et al.]"}, {"measurement": "Cmax in humans", "setting": "[3]; 300 mg/day ref 31", "value": "6.39 (20) μg/mL"}, {"measurement": "Cmax in humans", "setting": "[3]; 600 mg/day ref 31", "value": "11.4 (17) μg/mL"}, {"measurement": "Corresponding plasma concentration in human: steady state level", "setting": "[3]; 600 mg/day, range ref Dworkin et al.", "value": "Supra-therapeutic dose Slightly higher than steady state level of 600 mg/day: 0.244–18.6 mg/mL*a [Dworkin et al.]"}, {"measurement": "Steady state level in humans", "setting": "[3]; 600 mg/day, represented as range ref 33", "value": "0.244 to 18.6", "unit": "µg/mL"}]}
{"molecule": "COc1ccc2c(c1OCc1ccccc1)C[C@@H](C(=O)O)N(C(=O)C(c1ccccc1)c1ccccc1)C2", "note": "[EMA400]", "values": [{"measurement": "Anti-allodynic effects", "setting": "rats with CCI", "value": "dose-dependent anti-allodynic effects"}]}
{"molecule": "Cc1cc(Cn2cnc3c2CC(C(=O)O)N(C(=O)C(c2ccccc2)c2ccccc2)C3)ccc1N(C)C", "note": "(stereo not shown) [EMA200]", "values": [{"measurement": "Anti-allodynic effects", "setting": "rats with CCI", "value": "dose-dependent anti-allodynic effects"}]}
{"molecule": "COc1ccc2c(c1OCc1ccccc1)C[C@@H](C(=O)O)N(C(=O)C(c1ccccc1)c1ccccc1)C2", "note": "[EMA401]", "values": [{"measurement": "Distribution", "setting": "[4]; rat, in vivo", "value": "peripherally restricted"}, {"measurement": "Exposure after daily administration", "setting": "[4]; rat, in vivo, po", "value": "not cumulative"}, {"measurement": "Theta power relative to CCI", "setting": "[1]; 10 mg/kg p.o. daily starting d7 after CCI, day 7, n = 6", "value": "0.76 ± 0.07"}, {"measurement": "Theta power relative to CCI", "setting": "[1]; 10 mg/kg p.o. daily starting d7 after CCI, day 11, n = 6", "value": "0.77 ± 0.08"}, {"measurement": "Theta power relative to CCI", "setting": "[1]; 10 mg/kg p.o. daily starting d7 after CCI, day 14, n = 6", "value": "0.87 ± 0.12"}, {"measurement": "Theta power relative to CCI", "setting": "[1]; [7]", "value": "0.71 ± 0.13"}, {"measurement": "Longitudinal effects on theta power and PWL", "setting": "[1]; CCI d7, 30 min after administration", "value": "analgesic effects"}, {"measurement": "Longitudinal effects on theta power and PWL", "setting": "[1]; CCI d7, 2 hours after administration", "value": "tendency for reversal"}, {"measurement": "PWL relative to CCI", "setting": "[2]; 10 mg/kg p.o. daily starting d7 after CCI, day 7", "value": "1.60 ± 0.19"}, {"measurement": "PWL relative to CCI", "setting": "[2]; 10 mg/kg p.o. daily starting d7 after CCI, day 11", "value": "2.13 ± 0.28"}, {"measurement": "PWL relative to CCI", "setting": "[2]; 10 mg/kg p.o. daily starting d7 after CCI, day 14", "value": "2.27 ± 0.30"}, {"measurement": "PWL relative to CCI", "setting": "[2]; [7]", "value": "1.26 ± 0.11"}, {"measurement": "Corresponding plasma concentration in human: Cmax", "setting": "[3]; 200 mg/day, mean (% covariance) ref Rice et al.", "value": "Therapeutic dose Similar to Cmax of 200 mg/day: 1.01 (65) mg/mL*b [Rice et al.]"}, {"measurement": "Plasma concentration, clinical data", "setting": "[3]; human ref 18", "value": "1.01 (65) μg/mL"}]}
